Assay results published in US6127337A, “Bivalent thrombin inhibitors” (National Research Council of Canada, priority 1993, dated 2000).
Where two headings read alike, the source gives them in different places. One block for each compound: values may come before it.

Legend:
[1] = system: carotid injury-induced thrombosis; test: FeCl3 induced arterial injury model (carotid injury-induced thrombosis); assay type: in vivo; details: rat; for Dose to double occlusion time: control occlusion time 19 ± 1 min; for Dose to achieve patency at 60 min.: patency defined by no drop in vessel temperature
Procedure: […]: Rat, male, Sprague-Dawley. Weight: 375-450 g The FeCl3 induced arterial injury model assays were conducted according to Kurz, K. D., Main, […]., Thrombosis research 60; 269-280, 1990 and Schumacher, W. A. et al. J. pharmacology and experimental therapeutics 267; 1237-1242, 1993. Male, Sprague-Dawley (375-450 g) are anesthetized with Urethane (1500 mg/kg IP). Animals are laid on a heating pad which is maintained at 37° C. The carotid artery is approached through a midline cervical incision. Carefully blunt dissection is used to expose and isolate the vessel from the carotid sheath. Using forceps, the artery is lifted to provide clearance to insert two small polyethylene tubing (PE-205) underneath it. The temperature probe (Physitemp MT23/3 )TM is placed between the PE-205 and the artery. The vessel temperature is monitored for 60 minutes after application of FeCl3. Vessel temperature changes are recorded on a thermister (Cole-Palmer Model 08533-41). Injury is induced by application of a small disc (3 mm dia.) of WhatmanTM No.1 filter paper previously dipped in a 35% solution of FeCl3 on the carotid artery above the temperature probe. The site of the experiment is covered with in Aluminum foil in order to protect the FeCl3 from degradation by light. […] Before the start of the experiment, one blood sample is drawn (1 ml) in a tube of 0.105M buffered citrate solution (from the eye's sinus) and the animal is exsanguinated at the end. All the samples are kept on ice and centrifuged as soon as possible at 2000 Rpm for 10 min., 4° C. The plasma is analyzed in duplicate for activated partial thromboplastin time on a haemostasis analyzer (STAGO ST4TM). From a group of four animals, two arteries are stored at -80C for further analysis.

[2] = molecular target: T1, human thrombin (Homo sapiens, UniProt P00734); test: Inhibition of amidolytic activity of human thrombin (fluorogenic, Tos-Gly-Pro-Arg-AMC), Ki; assay type: biochemical
T1 construct: Human α-thrombin (3,000 NIH units/mg); purchased Sigma
Procedure: Materials. The chromogenic and fluorogenic substrates Tosyl-Gly-Pro-Arg-pNAand Tos-Gly-Pro-Arg-AMC were purchased from Boehringer Manheim and Sigma, respectively. […] Initial velocities were recorded at several inhibitor concentrations and kinetic parameters were determined by fitting the data to a general equation describing enzyme inhibition (Segel, 1975). The data were analyzed using the non-linear regression program RNLIN in the IMSL library (IMSL, 1987) on a microVAX™ 3500 computer. […] Fluorogenic assays were conducted using the same conditions and instrument as above operating in the fluorescence mode in the ratio (λex =383 nm, λem =455 nm) Fluorescence intensities were calibrated with 7-amino-4-methyl coumarin solution of known concentration
Determination of Thrombin Inhibitory Dissociation Constants KI
The steady-state velocity was then measured for a few minutes. The compounds of this invention were also pre-incubated with thrombin for 20 min at room temperature before adding the substrate. […] The kinetic data (the steady-state velocity at various concentrations of the substrate and the inhibitors) of the competitive inhibition was analyzed using the methods described by Segel (1975). A non-linear regression program, RNLIN in the IMSL library (IMSL, 1987), LMDER in MINPACK library (More et al., 1980) or Microsoft™ Excell™, was used to estimate the kinetic parameters (Km Vmax and Ki). The biological data are reported on tables I-V.

[3] = Table IV, no assay number given, read-out: Ki
[4] = FIG. 1 Dixon plot, human α-thrombin 0.033 NIH unit/mL, pH 7.8, 25° C., read-out: Ki
[5] = Table II, various active site inhibitor segments, human thrombin 3.0×10^-11 M, read-out: Ki
[6] = Table III, various linker segments, human thrombin 3.0×10^-11 M, read-out: Ki

Compound: 4-tert-Butyl-benzene sulfonyl-Arg-(D-Pipecolic acid)-(12-aminododecanoic acid)-4-aminobutyric acid)-Asp-Phe-Glu-Glu-Ile-Pro-Glu-Glu-Tyr-Leu-Gln-OH [Peptide P552]
- Dose to double occlusion time [1]: 0.5 mg/kg i.v. bolus
- Dose to achieve patency at 60 min. [1]: ≥ 2 mg/kg i.v. bolus

Compound: CC[C@H](C)[C@H](NC(=O)[C@H](CCC(=O)O)NC(=O)[C@H](CCC(=O)O)NC(=O)[C@H](Cc1ccccc1)NC(=O)[C@H](CC(=O)O)NC(=O)CCCCNC(=O)CNC(=O)CNC(=O)CCNC(=O)[C@H]1CCCCN1C(=O)[C@H](CCCNC(=N)N)NS(=O)(=O)c1cccc2c(N(C)C)cccc12)C(=O)N1CCC[C@H]1C(=O)N[C@@H](CCC(=O)O)C(=O)N[C@@H](CCC(=O)O)C(=O)N[C@@H](Cc1ccc(O)cc1)C(=O)N[C@@H](CC(C)C)C(=O)N[C@@H](CCC(N)=O)C(=O)O [Peptide P498]
- Ki [2, 4]: 0.131 ± 0.022 nM
- Ki ([2]; read-out: Ki value): < 1 nM

Compound: (D-Phe)-Arg-(D-Pipecolic acid)(12-aminododecanoic acid)-4-aminobutyric acid)-Asp-Phe-Glu-Glu-Ile-Pro-Glu-Glu-Tyr-Leu-Gln-OH [Peptide P483]
- Ki [2, 5]: 54.9 ± 6.6 nM

Compound: (D-β-cyclohexylalanine)-Arg-(D-Pipecolic acid)-(12-aminododecanoic acid)-4-aminobutyric acid)-Asp-Phe-Glu-Glu-Ile-Pro-Glu-Glu-Tyr-Leu-Gln-OH [Peptide P481]
- Ki [2, 5]: 9.51 ± 0.16 nM

Compound: dansyl-Arg-1,2,3,4-tetrahydroisoquinoline-3-carboxylic acid-(12-aminododecanoic acid)-4-aminobutyric acid)-Asp-Phe-Glu-Glu-Ile-Pro-Glu-Glu-Tyr-Leu-Gln-OH (RXXXDFEEIPEEYLQ; dansyl-Arg-Tic-aminododecanoic-aminobutyric N-terminal extension) [Peptide P471]
- Ki [2, 5]: 0.285 ± 0.04 nM

Compound: dansyl-Arg-(D)1-amino cyclohexane carboxylic acid-(12-aminododecanoic acid)-4-aminobutyric acid)-Asp-Phe-Glu-Glu-Ile-Pro-Glu-Glu-Tyr-Leu-Gln-OH [Peptide P473]
- Ki [2, 5]: 36.3 ± 10.3 nM

Compound: dansyl-Arg-(D-pipecolic acid)-(12-aminododecanoic acid)-4-aminobutyric acid)-Asp-Phe-Glu-Glu-Ile-Pro-Glu-Glu-Tyr-Leu-Gln-OH [Peptide P448]
- Ki [2, 4]: 0.017 ± 0.0042 nM
- Dose to double occlusion time [1]: 1.0 mg/kg i.v. bolus
- Dose to achieve patency at 60 min. [1]: > 2 mg/kg i.v. bolus

Compound: dansyl-Arg-(D-β-cyclohexylalanine)-(12-aminododecanoic acid)-4-aminobutyric acid)-Asp-Phe-Glu-Glu-Ile-Pro-Glu-Glu-Tyr-Leu-Gln-OH [Peptide P472]
- Ki [2, 5]: 17.1 ± 3.1 nM

Compound: dansyl-Arg-(L-Pip)-(4-aminobutyric acid-glycyl)-Asp-Phe-Glu-Glu-Ile-Pro-Glu-Glu-Tyr-Leu-Gln-OH [Peptide P409]
- Ki ([2]; Table III, various linker segments, human thrombin 3.0×10^-11 M): no inhibition

Compound: dansyl-Arg-(L-pipecolic acid)-(12-aminododecanoic acid)-4-aminobutyric acid)-Asp-Phe-Glu-Glu-Ile-Pro-Glu-Glu-Tyr-Leu-Gln-OH [Peptide P447]
- Ki [2, 5]: 12.4 ± 1.8 nM

Compound: dansyl-Cha-(D-Pipecolic acid)-(12-aminododecanoic acid)-4-aminobutyric acid)-Asp-Phe-Glu-Glu-Ile-Pro-Glu-Glu-Tyr-Leu-Gln-OH [Peptide P477]
- Ki [2, 5]: 5.85 ± 0.098 nM

Compound: dansyl-Phe-(D-Pipecolic acid)-(12-aminododecanoic acid)-4-aminobutyric acid)-Asp-Phe-Glu-Glu-Ile-Pro-Glu-Glu-Tyr-Leu-Gln-OH [Peptide P476]
- Ki [2, 5]: 2.62 ± 0.2 nM

Compound: fmoc-Arg-(D-Pipecolic acid)(12-aminododecanoic acid)-4-aminobutyric acid)-Asp-Phe-Glu-Glu-Ile-Pro-Glu-Glu-Tyr-Leu-Gln-OH [Peptide P484]
- Ki [2, 5]: 14.8 ± 1.2 nM

Further lines, with some results ahead:

- Ki [2, 3]: 0.003 ± 0.0004 nM
Compound: 4-tert-butylbenzenesulfonyl-Arg-(D-pipecolic acid)-(12-aminododecanoic acid)-4-aminobutyric acid)-Asp-Tyr-Glu-Pro-Ile-Pro-Glu-Glu-Ala-(L-β-cyclohexylalanine)-(D- Glu)-OH [Peptide P553]
- Dose to double occlusion time [1]: 0.25 mg/kg i.v. bolus
- Dose to achieve patency at 60 min. [1]: 0.5-1 mg/kg i.v. bolus

- Ki [2, 5]: 0.137 ± 0.026 nM
- Ki ([2]; read-out: Ki value): < 1 nM
Compound: benzyl sulfonyl-Arg-(D-Pipecolic acid)-(12-aminododecanoic acid)-4-aminobutyric acid)-Asp-Phe-Glu-Glu-Ile-Pro-Glu-Glu-Tyr-Leu-Gln-OH [Peptide P556]

- Ki [2, 5]: 1.02 ± 0.38 nM
Compound: dansyl-(D-Arg)-(D-Pipecolic acid)-(12-aminododecanoic acid)-4-aminobutyric acid)-Asp-Phe-Glu-Glu-Ile-Pro-Glu-Glu-Tyr-Leu-Gln-OH [Peptide P492]

- Ki [2, 6]: 6800 ± 1640 nM
Compound: dansyl-Arg-(D-Pipecolic acid)-(4-aminobutyric acid)-glycyl)-Asp-Phe-Glu-Glu-Ile-Pro-Glu-Glu-Tyr-Leu-Gln-OH [Peptide P514]

- Ki [2, 6]: 1480 ± 170 nM
Compound: dansyl-Arg-(D-Pipecolic acid)-(7-aminoheptanoic acid)-glycyl)-Asp-Phe-Glu-Glu-Ile-Pro-Glu-Glu-Tyr-Leu-Gln-OH (RXXGDFEEIPEEYLQ; dansyl, D-pipecolic acid, aminoheptanoic acid-glycyl linker) [Peptide P524]

- Ki [2, 6]: 0.521 ± 0.086 nM
- Ki ([2]; read-out: Ki value): < 1 nM
Compound: dansyl-Arg-(D-Pipecolic acid)-(8-aminocaproicacid)-4-aminobutyric acid)-Asp-Phe-Glu-Glu-Ile-Pro-Glu-Glu-Tyr-Leu-Gln-OH [Peptide P528]

- Ki ([2]; Table IV, results from assay no. 1, read-out: Ki): 0.00123 ± 0.00026 nM
- Ki ([2]; Table IV, results from assay no. 2, read-out: Ki): 0.002 ± 0.0004 nM
Compound: dansyl-Arg-(D-pipecolic acid)-(12-aminododecanoic acid)-4-aminobutyric acid)-Asp-Tyr-Glu-Pro-Ile-Pro-Glu-Glu-Ala-(L-β-cyclohexylalanine)-(D- Glu)-OH [Peptide P535]

- Ki [2, 5]: 5.2 ± 1.31 nM
Compound: dansyl-Nle-(D-Pipecolic acid)-(12-aminododecanoic acid)-4-aminobutyric acid)-Asp-Phe-Glu-Glu-Ile-Pro-Glu-Glu-Tyr-Leu-Gln-OH [Peptide P493]

- Ki [2, 5]: 0.032 ± 0.001 nM
Compound: α-naphthyl sulfonyl-Arg-(D-Pipecolic acid)-(12-aminododecanoic acid)-4-aminobutyric acid)-Asp-Phe-Glu-Glu-Ile-Pro-Glu-Glu-Tyr-Leu-Gln-OH [Peptide P531]
- Dose to double occlusion time [1]: 0.5 mg/kg i.v. bolus
- Dose to achieve patency at 60 min. [1]: > 2 mg/kg i.v. bolus

- Ki [2, 3]: 0.0145 ± 0.0009 nM
Compound: α-naphthyl sulfonyl-arginyl D-pipecolic acid-(12-aminododecanoic acid)-4-aminobutyric acid)-Asp-Tyr-Glu-Pro-Ile-Pro-Glu-Glu-Ala-(L-β-cyclohexylalanine)-(D- Glu)-OH [Peptide P581]
- Dose to double occlusion time [1]: 0.5 mg/kg i.v. bolus
- Dose to achieve patency at 60 min. [1]: 1 mg/kg i.v. bolus

- Ki [2, 5]: 0.024 ± 0.004 nM
Compound: β-naphthyl sulfonyl-Arg-(D-Pipecolic acid)-(12-aminododecanoic acid)-4-aminobutyric acid)-Asp-Phe-Glu-Glu-Ile-Pro-Glu-Glu-Tyr-Leu-Gln-OH [Peptide P532]
- Dose to double occlusion time [1]: 0.5-1 mg/kg i.v. bolus
- Dose to achieve patency at 60 min. [1]: 1-2 mg/kg i.v. bolus
